# Measurements taken from ChEMBL document CHEMBL1141064, “Discovery and structure-activity relationships of novel sulfonamides as potent PTP1B inhibitors” (Bioorg Med Chem Lett, 2005).
# Biological target: T1, Tyrosine-protein phosphatase non-receptor type 1 (Homo sapiens, UniProt P18031)
# T1 sequence (P18031 whole entry): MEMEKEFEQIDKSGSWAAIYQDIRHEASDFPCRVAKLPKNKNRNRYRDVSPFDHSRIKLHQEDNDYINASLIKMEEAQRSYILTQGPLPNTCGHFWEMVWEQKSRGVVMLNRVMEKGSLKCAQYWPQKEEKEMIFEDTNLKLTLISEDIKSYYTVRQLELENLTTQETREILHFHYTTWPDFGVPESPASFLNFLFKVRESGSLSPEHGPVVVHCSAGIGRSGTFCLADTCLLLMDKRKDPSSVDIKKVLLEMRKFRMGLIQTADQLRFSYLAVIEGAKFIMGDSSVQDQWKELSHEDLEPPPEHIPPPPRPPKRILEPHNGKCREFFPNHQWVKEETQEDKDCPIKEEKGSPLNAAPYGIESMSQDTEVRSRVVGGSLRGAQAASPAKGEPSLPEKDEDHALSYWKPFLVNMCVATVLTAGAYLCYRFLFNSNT
# Experiment: Inhibitory activity against protein tyrosine phosphatase 1B using O-methyl fluorescein monophosphate
SMILES,IC50 [µM],Ki [µM]
O=C(c1ccc(CN(Cc2ccccc2)S(=O)(=O)c2ccccc2[N+](=O)[O-])cc1)C(F)(F)P(=O)(O)O,12,
COc1cc(CN(Cc2ccc(S(=O)(=O)N(C)C)cc2)S(=O)(=O)c2ccc(OCC(=O)O)cc2)ccc1C(F)(F)P(=O)(O)O,1.1,
O=C(O)COc1c(F)cc(S(=O)(=O)N(Cc2ccccc2)Cc2ccc(C(F)(F)P(=O)(O)O)cc2)cc1F,1,
O=C(O)COc1ccc(S(=O)(=O)N(Cc2ccc(C(F)(F)P(=O)(O)O)cc2)Cc2cccs2)cc1,1,
CN(Cc1ccccc1)C(=O)CN(Cc1ccc(OCC(=O)O)cc1)Cc1ccc(C(F)(F)P(=O)(O)O)cc1,67.5,
O=C(O)COc1c(F)ccc(S(=O)(=O)N(Cc2ccccc2)Cc2ccc(C(F)(F)P(=O)(O)O)cc2)c1F,1.6,
CC(=O)c1cccc(CN(Cc2ccc(C(F)(F)P(=O)(O)O)cc2)S(=O)(=O)c2ccc(OCC(=O)O)cc2)c1,0.77,
Cc1cc(S(=O)(=O)N(Cc2ccccc2)Cc2ccc(C(F)(F)P(=O)(O)O)cc2)cc(C)c1OCC(=O)O,1.9,
CS(=O)(=O)Nc1ccc(CN(Cc2ccc(C(F)(F)P(=O)(O)O)cc2)S(=O)(=O)c2ccc(OCC(=O)O)cc2)cc1,0.18,
O=C(O)COc1ccc(S(=O)(=O)N(Cc2ccccc2)Cc2ccc(C(F)(F)P(=O)(O)O)cc2)cc1OC(F)(F)F,5,
O=C(O)COc1ccc(S(=O)(=O)N(CC(=O)N2CCCCC2)Cc2ccc(C(F)(F)P(=O)(O)O)cc2)cc1,6.8,
CC(=O)NCCN(Cc1ccc(C(F)(F)P(=O)(O)O)cc1)S(=O)(=O)c1ccc(OCC(=O)O)cc1,9,
CN(C)S(=O)(=O)c1ccc(CN(Cc2ccc(C(F)(F)P(=O)(O)O)cc2)S(=O)(=O)c2ccc(OCC(=O)O)cc2)cc1,1.1,
CN(Cc1ccccc1)C(=O)CN(Cc1ccc(C(F)(F)P(=O)(O)O)c(Br)c1)S(=O)(=O)c1ccc(OCC(=O)O)cc1,0.031,0.014
CN(Cc1ccccc1)C(=O)CN(Cc1ccc(C(F)(F)P(=O)(O)O)cc1)S(=O)(=O)c1ccc(OCC(=O)O)cc1,0.6,0.59
CN(C)S(=O)(=O)c1ccc(CN(Cc2ccc(C(F)(F)P(=O)(O)O)c(Br)c2)S(=O)(=O)c2ccc(OCC(=O)O)cc2)cc1,0.028,0.013

# Second part, the molecule after the results:
IC50 [µM],Ki [µM],SMILES
0.63,,O=C(O)COc1ccc(S(=O)(=O)N(Cc2ccc(NC(=O)c3ccccc3)cc2)Cc2ccc(C(F)(F)P(=O)(O)O)cc2)cc1
13.7,,O=P(O)(O)C(F)(F)c1ccc(CNCc2ccc(-c3csnn3)cc2)cc1
3,,O=C(O)COc1ccc(S(=O)(=O)N(Cc2ccccc2)Cc2ccc(C(F)(F)P(=O)(O)O)cc2)cc1F
2.3,,O=C(O)COc1ccc(C(=O)N(Cc2ccc(-c3csnn3)cc2)Cc2ccc(C(F)(F)P(=O)(O)O)cc2)cc1
4,,Cc1cc(S(=O)(=O)N(Cc2ccccc2)Cc2ccc(C(F)(F)P(=O)(O)O)cc2)ccc1OCC(=O)O
4,,O=C(O)COc1ccc(S(=O)(=O)N(Cc2ccccc2)Cc2ccc(C(F)(F)P(=O)(O)O)cc2)cc1C(F)(F)F
4.2,,O=P(O)(O)C(F)(F)c1ccc(CN(Cc2ccccc2)S(=O)(=O)c2ccccc2)cc1
0.06,,COc1cc(CN(Cc2ccc(-c3csnn3)cc2)S(=O)(=O)c2ccc(OCC(=O)O)cc2)ccc1C(F)(F)P(=O)(O)O
0.21,0.098,O=P(O)(O)C(F)(F)c1ccc(CN(Cc2ccc(-c3csnn3)cc2)S(=O)(=O)c2ccccc2)cc1
0.035,0.053,O=C(O)COc1ccc(S(=O)(=O)N(Cc2ccc(-c3csnn3)cc2)Cc2ccc(C(F)(F)P(=O)(O)O)c(Br)c2)cc1
6.9,,O=C(c1ccc(O)cc1)N(Cc1ccc(-c2csnn2)cc1)Cc1ccc(C(F)(F)P(=O)(O)O)cc1
0.6,,O=C(O)COc1ccc(S(=O)(=O)N(Cc2ccccc2)Cc2ccc(C(F)(F)P(=O)(O)O)cc2)cc1
7,,O=[N+]([O-])c1ccccc1S(=O)(=O)N(Cc1ccccc1)Cc1ccc(C(F)(F)P(=O)(O)O)cc1
0.074,0.056,O=C(O)COc1ccc(S(=O)(=O)N(Cc2ccc(-c3csnn3)cc2)Cc2ccc(C(F)(F)P(=O)(O)O)cc2)cc1
3,,O=C(O)COc1ccc(S(=O)(=O)N(Cc2ccccc2)Cc2ccc(C(F)(F)P(=O)(O)O)cc2)cc1Cl
2.9,,O=C(O)c1cc(S(=O)(=O)N(Cc2ccccc2)Cc2ccc(C(F)(F)P(=O)(O)O)cc2)ccc1O
0.22,,O=C(O)COc1ccc(S(=O)(=O)N(Cc2ccc(C(F)(F)P(=O)(O)O)cc2)c2ccc(-c3csnn3)cc2)cc1
4,,O=C(O)COc1ccc(S(=O)(=O)N(Cc2ccccc2)Cc2ccc(C(F)(F)P(=O)(O)O)cc2)cc1Br
